Laboratory results: paper PMC6949113, “Preclinical evaluation of AT-527, a novel guanosine nucleotide prodrug with potent, pan-genotypic activity against hepatitis C virus” (PLoS ONE, 2020)
“And” between values parts separate entries of the source, which are not always exact repeats. Equal entries are not always repeated. Structures can show the parent of a compound that is named as a salt. Where two headings read alike, the source gives them in different places.

Assays:
human DNA polymerase β = biological target: T1, human DNA polymerase β (Homo sapiens, UniProt P06746); experiment: Human DNA polymerase inhibition assay, β; assay type: biochemical
T1 construct: purchased CHIMERx (Madison, WI)
Procedure: (§1) The polymerases were purchased from CHIMERx (Madison, WI). Inhibition of DNA polymerase α activity was assayed in microtiter plates in 20 mM Tris-HCl, pH 8, 5 mM Mg acetate, 0.3 mg/mL BSA, 1mM DTT, 0.1 mM spermine, 0.05 mM dCTP, dTTP and dATP, 10 μCi ^32P-α-dGTP (800 Ci/mmol), 20 μg activated calf thymus DNA and the test compound at indicated concentrations. The DNA polymerase β and γ reaction mixture contained 50 mM Tris-HCl, pH 8.7, KCl (10 mM for β and 100 mM for γ), 10 mM MgCl2, 0.4 mg/mL BSA, 1mM DTT, 15% glycerol, 0.05 mM dCTP, dTTP and dATP, 10 μCi ^32P-α-dGTP (800 Ci/mmol), 20 μg activated calf thymus DNA and test compound at the indicated concentrations. For each assay, samples were run in triplicate, and positive controls were included. The enzyme reactions were allowed to proceed for 30 min at 37 °C followed by transfer onto glass-fiber filter plates and subsequent precipitation with 10% trichloroacetic acid (TCA). Plates were washed five times with 5% TCA, once with 95% ethanol and dried. The radioactive content of each filter was measured and used to determine the extent of inhibition of each polymerase.

human DNA polymerase γ = biological target: T2, human DNA polymerase γ (Homo sapiens, UniProt P54098); experiment: Human DNA polymerase inhibition assay, γ; assay type: biochemical
T2 construct: purchased CHIMERx (Madison, WI)
T2 sequence (P54098 whole entry): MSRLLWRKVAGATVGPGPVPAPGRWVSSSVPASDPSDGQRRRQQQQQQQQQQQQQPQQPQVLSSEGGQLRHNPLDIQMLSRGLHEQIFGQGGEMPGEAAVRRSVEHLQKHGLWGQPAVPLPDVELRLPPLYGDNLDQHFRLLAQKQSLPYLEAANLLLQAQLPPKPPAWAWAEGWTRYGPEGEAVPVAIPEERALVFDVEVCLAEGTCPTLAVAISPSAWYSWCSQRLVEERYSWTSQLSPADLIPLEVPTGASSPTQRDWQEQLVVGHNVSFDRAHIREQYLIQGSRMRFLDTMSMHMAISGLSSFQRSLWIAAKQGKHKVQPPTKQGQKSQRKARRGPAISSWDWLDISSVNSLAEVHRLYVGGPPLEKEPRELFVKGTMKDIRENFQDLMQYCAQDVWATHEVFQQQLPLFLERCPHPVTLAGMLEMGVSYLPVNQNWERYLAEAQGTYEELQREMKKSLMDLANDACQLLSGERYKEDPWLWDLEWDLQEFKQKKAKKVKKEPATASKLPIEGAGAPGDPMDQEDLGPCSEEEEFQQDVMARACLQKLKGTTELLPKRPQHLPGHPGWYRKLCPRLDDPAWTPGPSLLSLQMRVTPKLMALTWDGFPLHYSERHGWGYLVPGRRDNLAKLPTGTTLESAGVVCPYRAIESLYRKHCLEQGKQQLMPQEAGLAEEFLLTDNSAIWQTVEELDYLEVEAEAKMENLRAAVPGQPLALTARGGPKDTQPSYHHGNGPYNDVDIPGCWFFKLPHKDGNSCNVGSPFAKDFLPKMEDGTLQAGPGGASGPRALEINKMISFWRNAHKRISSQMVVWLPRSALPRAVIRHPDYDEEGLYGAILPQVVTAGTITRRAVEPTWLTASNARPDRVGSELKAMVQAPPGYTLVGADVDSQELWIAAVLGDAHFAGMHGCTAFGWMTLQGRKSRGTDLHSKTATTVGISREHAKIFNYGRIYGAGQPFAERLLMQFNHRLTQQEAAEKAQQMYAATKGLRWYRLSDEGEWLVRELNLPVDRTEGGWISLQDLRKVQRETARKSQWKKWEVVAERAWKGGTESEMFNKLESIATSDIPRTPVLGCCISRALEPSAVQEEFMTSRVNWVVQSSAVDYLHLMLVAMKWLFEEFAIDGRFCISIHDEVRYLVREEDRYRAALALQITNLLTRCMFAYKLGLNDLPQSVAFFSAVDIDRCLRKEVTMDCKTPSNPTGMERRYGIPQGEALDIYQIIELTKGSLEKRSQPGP
Procedure: as §1

RSV = experiment: Anti-RSV assay (XTT); conditions: RSV in HEp2 cells
HSV-1 = experiment: Anti-HSV-1 assay (XTT); assay type: cell-based, herpes simplex virus type 1; conditions: Human alphaherpesvirus 1; HSV-1 in Vero cells
From the text: Anti-Herpes Simplex Type 1 Virus (HSV-1).
(§2) Determination of antiviral activity and cytotoxicity.

Vero cells = experiment: XTT cytotoxicity, Vero cells; assay type: cell-based, African green monkey; conditions: HSV-1 assay
HIV-1 = experiment: Anti-HIV-1 assay (XTT); assay type: cell-based, human immunodeficiency virus type 1; conditions: Human immunodeficiency virus 1; HIV-1 in CEM-SS cells
Procedure: Anti-Human Immunodeficiency Virus (HIV-1). CEM-SS cells were obtained from the NIH AIDS Research and Reference Reagent Program (Manassas, VA), resuspended at 5x10^4 cells per mL and 50 µL added to the microtiter plate wells. The lymphocyte-tropic virus strain HIV-1RF (obtained from the NIH AIDS Research and Reference Reagent Program and grown in CEM-SS cells for stock virus pools) was used for the assay.
as §2

CEM-SS cells = experiment: XTT cytotoxicity, CEM-SS cells; assay type: cell-based; conditions: HIV-1 assay
[1] = system: granulocyte macrophage (GM) human bone marrow progenitor cells; experiment: Bone marrow progenitor cell inhibition assay, GM; assay type: cell-based; conditions: 14 days
[2] = system: erythroid (E) human bone marrow progenitor cells; experiment: Bone marrow progenitor cell inhibition assay, E; assay type: cell-based; conditions: 14 days
From the text: Bone marrow progenitor cell inhibition assays. […] The resulting number of colonies (greater than 30 cells) were compared to control wells to determine the extent of cytotoxicity.

Flu A = experiment: Anti-influenza A assay (XTT); assay type: cell-based, influenza virus type A; conditions: Influenza A virus; Flu A in MDCK cells
Flu B = experiment: Anti-influenza B assay (XTT); assay type: cell-based, influenza virus type B; conditions: Influenza B virus; Flu B in MDCK cells
From the text: Anti-Influenza Type A and B Virus (Flu A & B). […] The influenza A/PR/8/34 (VR-95) and influenza B/Allen/45 (VR-102) was obtained from ATCC and a stock virus pool was produced in MDCK cells.
as §2

[3] = system: HCV NS5B replicons, laboratory strains; experiment: PhenoSense HCV NS5B assay, laboratory strains; assay type: cell-based, hepatitis C virus
[4] = system: HCV NS5B replicons from clinical isolates; experiment: PhenoSense HCV NS5B assay, clinical isolates; assay type: cell-based, hepatitis C virus; conditions: for EC50: Hepatitis C virus
[5] = system: HCV strains containing resistance-associated variants (RAVs); experiment: PhenoSense HCV NS5B assay, resistance-associated variants; assay type: cell-based, hepatitis C virus; conditions: for EC50: Hepatitis C virus
Huh-luc/neo-ET cells = conditions: XTT
HCV GT1b replicon = HCV GT1b replicon assay (Britelite luciferase reporter)
[6] = biological target: human mitochondrial RNA polymerase (POLRMT) (Homo sapiens, UniProt O00411); conditions: nucleotide controls; cited from earlier work
human mitochondrial RNA polymerase (POLRMT), sequence (O00411 42-1230): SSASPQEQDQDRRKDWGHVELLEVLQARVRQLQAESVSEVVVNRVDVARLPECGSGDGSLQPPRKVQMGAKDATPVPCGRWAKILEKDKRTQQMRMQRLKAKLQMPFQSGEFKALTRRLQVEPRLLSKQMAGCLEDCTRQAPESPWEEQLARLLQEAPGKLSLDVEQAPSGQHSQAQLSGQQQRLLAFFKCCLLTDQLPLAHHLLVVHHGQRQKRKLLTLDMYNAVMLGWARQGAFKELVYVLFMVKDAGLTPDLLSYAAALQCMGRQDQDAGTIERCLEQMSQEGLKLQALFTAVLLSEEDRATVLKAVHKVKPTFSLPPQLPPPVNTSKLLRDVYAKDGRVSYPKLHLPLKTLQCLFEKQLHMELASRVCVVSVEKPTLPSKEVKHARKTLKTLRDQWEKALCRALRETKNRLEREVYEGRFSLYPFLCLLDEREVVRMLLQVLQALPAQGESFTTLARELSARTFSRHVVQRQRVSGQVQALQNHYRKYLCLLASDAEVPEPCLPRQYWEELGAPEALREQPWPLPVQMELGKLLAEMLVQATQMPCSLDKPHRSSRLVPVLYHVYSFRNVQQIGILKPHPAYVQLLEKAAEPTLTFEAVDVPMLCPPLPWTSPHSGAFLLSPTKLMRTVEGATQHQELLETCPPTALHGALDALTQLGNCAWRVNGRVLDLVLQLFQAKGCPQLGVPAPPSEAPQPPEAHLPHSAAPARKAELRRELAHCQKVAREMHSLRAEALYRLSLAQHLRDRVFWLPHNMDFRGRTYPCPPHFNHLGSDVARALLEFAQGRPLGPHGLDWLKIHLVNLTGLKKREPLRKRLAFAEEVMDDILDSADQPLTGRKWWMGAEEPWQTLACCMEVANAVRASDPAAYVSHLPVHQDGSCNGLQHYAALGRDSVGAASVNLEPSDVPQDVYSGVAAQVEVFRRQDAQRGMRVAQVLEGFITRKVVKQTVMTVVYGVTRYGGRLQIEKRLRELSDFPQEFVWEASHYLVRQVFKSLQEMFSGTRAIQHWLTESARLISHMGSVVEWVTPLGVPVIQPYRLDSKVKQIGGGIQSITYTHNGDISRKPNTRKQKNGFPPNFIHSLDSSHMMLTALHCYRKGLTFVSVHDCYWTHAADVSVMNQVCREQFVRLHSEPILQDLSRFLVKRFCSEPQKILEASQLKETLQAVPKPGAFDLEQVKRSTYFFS

human iPS cardiomyocytes = assay type: cell-based; conditions: 3 days
Procedure: Cardiomyocyte assay. […] Test or positive control compounds were then added in triplicate and the incubations continued for 3 days. Cell viability was measured by XTT and CellTiter Glo staining. For the latter method, the medium was removed from test plates, replaced with CellTiter Glo reagent in fresh medium before incubating at RT for 10 min. The well contents were transferred to a white 96-well plate and luminescence measured within 15 min on a Wallac 1450 Microbeta Trilux liquid scintillation counter.

HBV = experiment: Anti-HBV evaluation (qPCR of HBV DNA); assay type: cell-based; conditions: Hepatitis B virus; HBV in AD38 cells
Procedure: (§3) Anti-HBV evaluation. […] The test compound was serially diluted in the RPMI/FBS medium and added to the wells in triplicate (with six wells receiving medium alone as a virus only control). The plate was incubated for 6 days, with a change in medium (+/- compound) on Day 3. Supernatant (100 µL) was collected from each well for analysis of viral DNA by qPCR as described below and cytotoxicity was evaluated by XTT staining of the cell culture monolayer on the sixth day as described above.
Quantitative PCR detection of HBV DNA. Cell culture supernatant (10 µL) was diluted in qPCR dilution buffer (40 µg/mL sheared salmon sperm DNA) and boiled for 15 min. Quantitative real time PCR was performed in […] using an Applied Biosystems 7900HT Sequence Detection System and the supporting SDS 2.4 software. Samples (5 µL boiled DNA) and DNA standards were subjected to real time qPCR using Platinum Quantitative PCR SuperMix-UDG (Invitrogen) and specific DNA oligonucleotide primers (IDT, Coralville, […]) HBV-AD38-qF1 (5’-[…] -3’), HBV-AD38-qR1 (5’-AGT CCA AGA GTY CTC TTA TRY AAG ACC TT-3’), and HBV-AD38-qP1 (5’-FAM-CCG TGT GCA/ZEN/[…] -3’BHQ1) at a final concentration of 0.2 µM for each primer in a total reaction volume of 15 µL. […]

AD38 cells = experiment: XTT cytotoxicity, AD38 cells; assay type: cell-based; conditions: AD38, HBV assay
Procedure: as §2, §3

[7] = individual assays, AT-511 batches 1-6, SOF in parallel

C[C@H](CCC(=O)O)[C@H]1CC[C@H]2[C@@H]3CC[C@@H]4C[C@H](O)CC[C@]4(C)[C@H]3CC[C@]12C [lithocholic acid, reference compound]
IC50 (human DNA polymerase β): 2910 nM

Nc1nc2c(ncn2[C@@H]2O[C@H](COP(=O)(O)OP(=O)(O)OP(=O)(O)O)[C@@H](O)[C@H]2F)c(=O)[nH]1 [2’-fluoro-2’-dGTP, reference compound]
IC50 (human DNA polymerase γ): 10400 nM

Cc1ccc(CCCO)c(NCc2ccc3nc(NCCCN4CCOCC4)n(Cc4nc(C)ccc4O)c3c2)c1 [TMC-353121]
TC50 (HEp2 cells): >100 nM | EC50 (RSV): 3 nM

Nc1nc2c(ncn2COCCO)c(=O)[nH]1 [Acyclovir]
EC50 (HSV-1): 1760 nM | TC50 (Vero cells): >100000 nM

Cc1cn([C@H]2C[C@H](N=[N+]=[N-])[C@@H](CO)O2)c(=O)[nH]c1=O [Zidovudine]
EC50 (HIV-1): 4 nM | TC50 (CEM-SS cells): >500 nM | TC50 [1]: 1000 nM | TC50 [2]: 2000 nM

CCOC(=O)C1=C[C@@H](OC(CC)CC)[C@H](NC(C)=O)[C@@H](N)C1 [Oseltamivir]
EC50 (Flu A): 160 nM | EC50 (Flu B): 420 nM | TC50 (MDCK cells; Flu A assay): >10000 nM | TC50 (MDCK cells; Flu B assay): >10000 nM

CC(C)OC(=O)[C@H](C)N[P@](=O)(OC[C@H]1O[C@@H](n2ccc(=O)[nH]c2=O)[C@](C)(F)[C@@H]1O)Oc1ccccc1 [SOF, sofosbuvir]
EC95 ([3]; GT1a H77): 719 nM | EC95 ([3]; GT1b Con-1): 545 nM | EC50 ([3]; GT1b Con-1 (control reference)): 89.4 nM | EC95 ([3]; GT3a S52): 700 nM | EC50 ([3]; Hepatitis C virus, GT1A, GT1a H77): 83.4 nM | EC50 ([3]; Hepatitis C virus, GT1B, GT1b Con-1 (control reference)): 89 nM | EC50 ([3]; Hepatitis C virus, GT2A, GT2a JFH-1): 50.7 nM | EC50 ([3]; Hepatitis C virus, GT3A, GT3a S52): 117 nM | EC50 ([3]; Hepatitis C virus, GT4A, GT4a ED43): 158 nM | EC50 ([3]; Hepatitis C virus, GT5A, GT5a SA13): 287 nM | EC50 ([3]; Hepatitis C virus, read-out: range in EC50 values across genotypes, panel of six laboratory strains): 51 to 287 nM | fold range in EC50 values across genotypes ([3]; laboratory strains): 5.6 fold | EC50 ([4]; GT1A, clinical isolate GT1a): 62.7 nM | EC50 ([4]; GT1B, clinical isolate GT1b): 86 nM | EC50 ([4]; GT2A, clinical isolate GT2a): 22.5 nM | EC50 ([4]; GT2B, clinical isolate GT2b): 44.8 nM | EC50 ([4]; GT3A, clinical isolate GT3a-1): 126 nM | EC50 ([4]; GT3A, clinical isolate GT3a-2): 123 nM | EC50 ([4]; GT4A, clinical isolate GT4a): 74.9 nM | EC50 ([4]; clinical isolate GT4d): 93.7 nM | EC50 ([4]; read-out: range in EC50 values, eight clinical-isolate replicons): 23 to 126 nM | EC95 ([4]; clinical isolate GT1a): 508 nM | EC95 ([4]; clinical isolate GT1b): 642 nM | EC95 ([4]; clinical isolate GT2a): 195 nM | EC95 ([4]; clinical isolate GT2b): 295 nM | EC95 ([4]; clinical isolate GT3a-1): 690 nM | EC95 ([4]; clinical isolate GT3a-2): 808 nM | EC95 ([4]; clinical isolate GT4a): 681 nM | EC95 ([4]; clinical isolate GT4d): 1020 nM | fold range in EC50 values ([4]; clinical isolates): 5.5 fold | fold range in EC95 values ([4]; clinical isolates): 5.2 fold | EC95 ([5]; GT1a 2_C316N): 473 nM | EC95 ([5]; GT1a 2c1_L159F): 1068 nM | EC95 ([5]; GT1a 2c2_L159F_S282T): 16950 nM | EC95 ([5]; GT1a H77_C316N): 469 nM | EC95 ([5]; GT1a H77_S282T): 7230 nM | EC95 ([5]; GT1b Con-1_L159F): 715 nM | EC95 ([5]; GT1b Con-1_S282T): 7230 nM | EC95 ([5]; GT2b 2_L159F): 539 nM | EC50 ([5]; GT1A, GT1a 2_C316N): 73.9 nM | EC50 ([5]; GT1A, GT1a 2c1_L159F): 115 nM | EC50 ([5]; GT1A, GT1a 2c2_L159F_S282T): 1620 nM | EC50 ([5]; GT1A, GT1a H77_C316N): 57.2 nM | EC50 ([5]; GT1A, GT1a H77_S282T): 1400 nM | EC50 ([5]; GT1B, GT1b Con-1_L159F): 111 nM | EC50 ([5]; GT1B, GT1b Con-1_S282T): 950 nM | EC50 ([5]; GT2B, GT2b 2_L159F): 79.2 nM | shift in EC50 versus reference strain lacking S282T ([5]; strains with S282T): 15 fold | shift in EC95 versus reference strain lacking S282T ([5]; strains with S282T): 19 fold | toxicity to the replicon cells, none up to highest concentration tested (Huh-luc/neo-ET cells): > 1 µM | TC50 (Huh-luc/neo-ET cells; individual assays): >1000 nM | EC50 (HCV GT1b replicon; Hepatitis C virus, GT1B, read-out: EC50 range, range over all assays): 33 to 68 nM | EC50 (HCV GT1b replicon; Hepatitis C virus, GT1B, read-out: mean EC50, mean (± SD) of all assays): 48 ± 10 nM | EC50 (HCV GT1b replicon; [7]): 52.3 nM and 46.5 nM and 67.5 nM and 32.7 nM and 48.3 nM and 40.4 nM and 47.6 nM and 48.1 nM | EC95 (HCV GT1b replicon; [7]): 360 nM and 231 nM and 387 nM and 197 nM and 247 nM and 198 nM and 275 nM and 263 nM | mean EC95 (HCV GT1b replicon; mean (± SD) of all assays): 270 ± 70 nM and 270 nM | EC50 (HCV GT1b replicon; read-out: EC50 range, range over all assays): 32.7 to 67.5 nM | EC50 (HCV GT1b replicon; read-out: mean EC50, mean (± SD) of all assays): 47.9 nM

Nc1nc2c(ncn2[C@@H]2O[C@H](COP(=O)(O)OP(=O)(O)OP(=O)(O)O)[C@@H](O)[C@H]2O)c(=O)[nH]1 [GTP]
kpol [6]: 21 ± 1 s⁻¹

COc1cc2nc(N3CCN(C(=O)C4COc5ccccc5O4)CC3)nc(N)c2cc1OC (centres unmarked) [doxazosin]
TC50 (human iPS cardiomyocytes): 18000 nM

O=c1ccn([C@@H]2O[C@H](COP(=O)(O)OP(=O)(O)OP(=O)(O)O)[C@@H](O)[C@H]2O)c(=O)[nH]1 [UTP]
kpol [6]: 17 ± 1 s⁻¹

CC(C)OC(=O)OCOP(=O)(CO[C@H](C)Cn1cnc2c(N)ncnc21)OCOC(=O)OC(C)C [TDF, tenofovir disoproxil fumarate]
EC50 (HBV): 230 nM | TC50 (AD38 cells): >1000 nM
